# Test results taken from patent US8158021B2, “Polymerizable liquid crystal compound, polymerizable liquid crystal composition, liquid crystalline polymer, and optical anisotropic article” (Zeon Corporation, priority 2007, dated 2012).
# Key:
# [1] = Measurement of phase transition temperature (liquid crystallinity temperature range); format: physicochemical
# Experimental: The substrates were heated from 30° C. to 250° C. on a hot plate, and then cooled to 30° C. A change in structure during a change in temperature was observed using a polarization optical microscope (“ECLIPSE LV100POL” manufactured by Nikon Corporation) to measure the phase transition temperature.
# In Table 1, “C” indicates “Crystal”, “N” indicates “Nematic”, and “I” indicates “Isotropic”.
# [2] = Formation of cholesteric phase in cured liquid crystalline polymer film; format: physicochemical; design: key: A case where a cholesteric phase was formed is indicated by “Formed”; a case where a cholesteric phase was not formed is indicated by “Not formed”; details: composition with polymerizable chiral compound; cured film 4 μm; transmission spectrum
# Experimental: The polymerizable liquid crystal composition solution was applied to a glass substrate provided with a rubbed polyimide alignment film using a bar coater (“SA-203” manufactured by Tester Sangyo Co., Ltd., Rod No. 8, shaft diameter: 12.7 mm). After drying the resulting film on a hot plate at 100° C. for three minutes, ultraviolet rays (1000 mJ/cm^2) were applied to the film from a mercury lamp to obtain a cured liquid crystalline polymer film having a thickness of 4 μm.
# The transmission spectrum of the cured film was measured using a spectrophotometer (“MCPD-3000” manufactured by Otsuka Electronics Co., Ltd.). A selective reflection region (i.e., a region in which the transmittance was about 50%) was observed when a cholesteric phase was formed. The bandwidth was about 50 to 100 nm. A case where a cholesteric phase was formed is indicated by “Formed”, and a case where a cholesteric phase was not formed is indicated by “Not formed”.
# [3] = Measurement of optical anisotropy (value Δn) of cured polymer film; format: physicochemical; details: cured polymer film 1.5 μm; retardation at 545.3 nm; Δn=Re/d
# Experimental: 2.7 parts of a photoinitiator (“Irgacure 907” manufactured by Ciba Specialty Chemicals Co., Ltd.) was then homogenously dissolved in the solution. The resulting solution was applied to a glass substrate provided with a rubbed polyimide alignment film using a bar coater (“SA-203” manufactured by Tester Sangyo Co., Ltd., Rod No. 4, shaft diameter: 12.7 mm). After drying the resulting film on a hot plate at 100° C. for two minutes, ultraviolet rays (700 mJ/cm^2) were applied to the film from a mercury lamp to obtain a cured polymer film having a thickness of 1.5 μm.
# The retardation (Re) of the cured film at a wavelength of 545.3 nm was measured using an ellipsometer (“XLS-100” manufactured by J. A. Woollam). The thickness (d) of the liquid crystal layer was also measured, and the value Δn was calculated by “Δn=Re/d”.
# [4] = Solubility in cyclopentanone; details: in cyclopentanone at 60° C., compound concentration 40 wt %
# Experimental: The solubility of the compound at 60° C. was evaluated when preparing the solution having a compound concentration of 40 wt %.
# [5] = Mutual solubility when forming the cured film; details: at 23° C., naked eye observation of turbidity
# Experimental: When forming the cured film of the compound, the mutual solubility of the compound at 23° C. was evaluated by naked eye observation. A case where turbidity was not observed is indicated by “Good”, and a case where turbidity was observed is indicated by “Bad”.
# [6] = heated from 30° C. to 250° C., then cooled to 30° C., polarization optical microscope
Compound,"Liquid crystallinity temperature range [1, 6]",Cholesteric phase [2],Δn [3],Solubility [4],Mutual solubility [5],Liquid crystallinity temperature range ([1]; summary of Table 1)
C=CC(=O)OCCCCOc1ccc(C(=O)Oc2ccc(C=NN=Cc3ccc(OC(=O)c4ccc(OCCCCOC(=O)C=C)cc4)c(OCC)c3)cc2)cc1 [Polymerizable liquid crystal compound 6],170 °C or more,Formed,0.202,,,
C=CC(=O)OCCCCCCOc1ccc(C(=O)Oc2ccc(C=NN=Cc3cc(OC)c(OC(=O)c4ccc(OCCCCCCOC(=O)C=C)cc4)c(OC)c3)cc2)cc1 [Polymerizable liquid crystal compound 5],155 °C or more,Formed,0.116,,,
C=CC(=O)OCCCCCCOc1ccc(C(=O)Oc2ccc(C=NN=Cc3ccc(OC(=O)c4ccc(OCCCCCCOC(=O)C=C)cc4)c(C(=O)OCCOCCC)c3)cc2)cc1 [Polymerizable liquid crystal compound 3],190 °C or more,Formed,0.176,,,
C=CC(=O)OCCCCOC(=O)Oc1ccc(C(=O)Oc2ccc(OC(=O)c3ccc(OC(=O)OCCCCOC(=O)C=C)cc3)c(C)c2)cc1 [compound 12],63 °C,Formed,0.100,Good,Good,
C=CC(=O)OCCCCCCOc1ccc(C(=O)Oc2ccc(C=NN=Cc3ccc(OC(=O)c4ccc(OCCCCCCOC(=O)C=C)cc4)c(OCC)c3)cc2OCC)cc1 [Polymerizable liquid crystal compound 8],150 °C or more,Formed,0.200,,,
C=CC(=O)OCCCCCCOc1ccc(C(=O)Oc2ccc(C=NN=Cc3ccc(OC(=O)c4ccc(OCCCCCCOC(=O)C=C)cc4)c(OCC)c3)cc2)cc1 [Polymerizable liquid crystal compound 4],175 °C or more,Formed,0.199,,,
C=CC(=O)OCCCCCCOc1ccc(C(=O)Oc2ccc(C=NN=Cc3ccc(OC(=O)c4ccc(OCCCCCCOC(=O)C=C)cc4)c(C(=O)OCCOC(=O)C=C)c3)cc2)cc1 [Polymerizable liquid crystal compound 7],125 °C or more,Formed,0.187,,,
C=CC(=O)OCCCCCCOc1ccc(C(=O)Oc2ccc(C=NN=Cc3ccc(OC(=O)c4ccc(OCCCCCCOC(=O)C=C)cc4)c(C(=O)OC)c3)cc2C(=O)OC)cc1 [Polymerizable liquid crystal compound 10],130 °C or more,Formed,0.191,,,
"C=CC(=O)OCCCCOC(=O)Oc1ccc(C(=O)Oc2ccc(OC(=O)c3ccc(OC(=O)OCCCCOC(=O)C=C)cc3)c(C)c2)cc1 [Polymerizable liquid crystal compound 12, reference compound]",,,,,,narrow temperature range
